According to the NIST ThermoML archive (doi:10.1021/je900137r):
Numbers after ± are expanded uncertainties.

Experiment: Molar enthalpy of transition or fusion
Conditions: Crystal; Adiabatic calorimetry

Molar enthalpy of transition or fusion: 0.838 ± 0.00956 kcal/mol
Compound: CCC [propane]
